How the values were obtained:
[1] = molecular target: Phosphatidylinositol 5-phosphate 4-kinase type-2 beta (Homo sapiens) (UniProt P78356); conditions: Compound concentration 1000.0 nM
[2] = test system: Epidermal growth factor receptor (Homo sapiens), P00533 [UNDEFINED MUTATION]; conditions: Compound concentration 1000.0 nM
[3] = molecular target: Tyrosine-protein kinase ABL1 (Homo sapiens) (UniProt P00519); conditions: Compound concentration 1000.0 nM
[4] = molecular target: Mitogen-activated protein kinase kinase kinase kinase 5 (Homo sapiens) (UniProt Q9Y4K4); conditions: Compound concentration 1000.0 nM
[5] = test system: Tyrosine-protein kinase ABL1 (Homo sapiens), P00519 [F317L]; conditions: Compound concentration 1000.0 nM
[6] = molecular target: 1-phosphatidylinositol 3-phosphate 5-kinase (Homo sapiens) (UniProt Q9Y2I7); conditions: Compound concentration 1000.0 nM
[7] = molecular target: Dual specificity protein kinase CLK1 (Homo sapiens) (UniProt P49759); conditions: Compound concentration 1000.0 nM
[8] = molecular target: Serine/threonine-protein kinase DCLK2 (Homo sapiens) (UniProt Q8N568); conditions: Compound concentration 1000.0 nM
[9] = molecular target: Dual specificity mitogen-activated protein kinase kinase 2 (Homo sapiens) (UniProt P36507); conditions: Compound concentration 1000.0 nM
[10] = molecular target: Tyrosine-protein kinase receptor TYRO3 (Homo sapiens) (UniProt Q06418); conditions: Compound concentration 1000.0 nM
[11] = molecular target: Cyclin-dependent kinase 2 homolog (Plasmodium falciparum (isolate 3D7)) (UniProt P61075); conditions: Compound concentration 1000.0 nM
[12] = molecular target: Receptor-interacting serine/threonine-protein kinase 1 (Homo sapiens) (UniProt Q13546); conditions: Compound concentration 1000.0 nM
[13] = molecular target: Cyclin-dependent kinase 18 (Homo sapiens) (UniProt Q07002); conditions: Compound concentration 1000.0 nM
[14] = molecular target: Tyrosine-protein kinase HCK (Homo sapiens) (UniProt P08631); conditions: Compound concentration 1000.0 nM
[15] = molecular target: GABA-A receptor; anion channel (Rattus norvegicus) (UniProt O09028+P15431+P18506+P18508+P19969+P20236+P23574+P23576+P28471+P28473+P30191+P62813+P63079+P63138+Q91ZM7+Q9ES14); conditions: Compound concentration 10.0 uM
[16] = molecular target: Dual specificity testis-specific protein kinase 1 (Homo sapiens) (UniProt Q15569); conditions: Compound concentration 1000.0 nM
[17] = molecular target: Fibroblast growth factor receptor 1 (Homo sapiens) (UniProt P11362); conditions: Compound concentration 1000.0 nM
[18] = molecular target: Serine/threonine-protein kinase BRSK2 (Homo sapiens) (UniProt Q8IWQ3); conditions: Compound concentration 1000.0 nM
[19] = molecular target: Platelet-derived growth factor receptor beta (Homo sapiens) (UniProt P09619); conditions: Compound concentration 1000.0 nM
[20] = test system: Epidermal growth factor receptor (Homo sapiens), P00533 [UNDEFINED MUTATION]; conditions: Compound concentration 1000.0 nM; remark: listed apart in the source
[21] = molecular target: Phosphatidylinositol 4,5-bisphosphate 3-kinase catalytic subunit gamma isoform (Homo sapiens) (UniProt P48736); conditions: Compound concentration 1000.0 nM
[22] = test system: Epidermal growth factor receptor (Homo sapiens), P00533 [G719S]; conditions: Compound concentration 1000.0 nM
[23] = molecular target: Serine/threonine-protein kinase ULK1 (Homo sapiens) (UniProt O75385); conditions: Compound concentration 1000.0 nM
[24] = molecular target: Serine/threonine-protein kinase SIK2 (Homo sapiens) (UniProt Q9H0K1); conditions: Compound concentration 1000.0 nM
[25] = molecular target: Phosphatidylinositol 3-kinase catalytic subunit type 3 (Homo sapiens) (UniProt Q8NEB9); conditions: Compound concentration 1000.0 nM
[26] = molecular target: Serine/threonine-protein kinase Nek3 (Homo sapiens) (UniProt P51956); conditions: Compound concentration 1000.0 nM
[27] = molecular target: Atypical kinase COQ8B, mitochondrial (Homo sapiens) (UniProt Q96D53); conditions: Compound concentration 1000.0 nM
[28] = molecular target: Receptor tyrosine-protein kinase erbB-2 (Homo sapiens) (UniProt P04626); conditions: Compound concentration 1000.0 nM
[29] = molecular target: Dual specificity protein kinase CLK2 (Homo sapiens) (UniProt P49760); conditions: Compound concentration 1000.0 nM
[30] = molecular target: Sodium-dependent noradrenaline transporter (Homo sapiens, UniProt P23975); conditions: Compound concentration 10.0 uM
[31] = molecular target: Bone morphogenetic protein receptor type-1A (Homo sapiens) (UniProt P36894); conditions: Compound concentration 1000.0 nM
[32] = molecular target: Serine/threonine-protein kinase RIO1 (Homo sapiens) (UniProt Q9BRS2); conditions: Compound concentration 1000.0 nM
[33] = test system: Receptor-type tyrosine-protein kinase FLT3 (Homo sapiens), P36888 [R834Q]; conditions: Compound concentration 1000.0 nM
[34] = molecular target: Beta-3 adrenergic receptor (Homo sapiens, UniProt P13945); conditions: Compound concentration 10.0 uM
[35] = molecular target: Cyclin-dependent kinase 4 (Homo sapiens) (UniProt P11802); conditions: Compound concentration 1000.0 nM
[36] = molecular target: Mitogen-activated protein kinase kinase kinase 2 (Homo sapiens) (UniProt Q9Y2U5); conditions: Compound concentration 1000.0 nM
[37] = molecular target: Calcium/calmodulin-dependent protein kinase type 1 (Homo sapiens) (UniProt Q14012); conditions: Compound concentration 1000.0 nM
[38] = molecular target: Mitogen-activated protein kinase kinase kinase 13 (Homo sapiens) (UniProt O43283); conditions: Compound concentration 1000.0 nM
[39] = molecular target: Histamine H2 receptor (Homo sapiens) (UniProt P25021); conditions: Compound concentration 10.0 uM
[40] = molecular target: Aurora kinase C (Homo sapiens) (UniProt Q9UQB9); conditions: Compound concentration 1000.0 nM
[41] = molecular target: Serine/threonine-protein kinase WNK1 (Homo sapiens) (UniProt Q9H4A3); conditions: Compound concentration 1000.0 nM
[42] = molecular target: Tyrosine-protein kinase JAK2 (Homo sapiens) (UniProt O60674); conditions: Compound concentration 1000.0 nM
[43] = molecular target: Tyrosine-protein kinase BTK (Homo sapiens) (UniProt Q06187); conditions: Compound concentration 1000.0 nM
Tyrosine-protein kinase BTK (Homo sapiens), sequence (Q06187 whole entry): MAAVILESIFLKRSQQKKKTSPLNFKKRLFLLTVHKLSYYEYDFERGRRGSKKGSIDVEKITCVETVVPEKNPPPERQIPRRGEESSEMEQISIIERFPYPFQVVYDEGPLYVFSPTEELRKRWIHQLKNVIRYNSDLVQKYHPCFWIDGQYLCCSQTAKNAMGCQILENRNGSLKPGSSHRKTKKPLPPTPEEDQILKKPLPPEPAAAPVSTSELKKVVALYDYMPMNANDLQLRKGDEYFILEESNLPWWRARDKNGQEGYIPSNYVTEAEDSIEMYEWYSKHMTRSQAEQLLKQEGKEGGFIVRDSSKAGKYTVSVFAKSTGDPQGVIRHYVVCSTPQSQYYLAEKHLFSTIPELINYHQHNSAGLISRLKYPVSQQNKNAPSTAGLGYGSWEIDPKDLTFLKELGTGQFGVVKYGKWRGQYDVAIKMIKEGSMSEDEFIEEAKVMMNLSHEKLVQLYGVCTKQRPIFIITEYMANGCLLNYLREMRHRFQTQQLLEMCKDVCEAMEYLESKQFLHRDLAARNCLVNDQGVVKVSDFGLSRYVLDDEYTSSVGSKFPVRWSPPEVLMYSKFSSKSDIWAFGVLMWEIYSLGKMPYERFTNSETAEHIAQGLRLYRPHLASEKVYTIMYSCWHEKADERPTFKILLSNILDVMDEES

Dual specificity protein kinase CLK2 (Homo sapiens), sequence (P49760 whole entry, looked up): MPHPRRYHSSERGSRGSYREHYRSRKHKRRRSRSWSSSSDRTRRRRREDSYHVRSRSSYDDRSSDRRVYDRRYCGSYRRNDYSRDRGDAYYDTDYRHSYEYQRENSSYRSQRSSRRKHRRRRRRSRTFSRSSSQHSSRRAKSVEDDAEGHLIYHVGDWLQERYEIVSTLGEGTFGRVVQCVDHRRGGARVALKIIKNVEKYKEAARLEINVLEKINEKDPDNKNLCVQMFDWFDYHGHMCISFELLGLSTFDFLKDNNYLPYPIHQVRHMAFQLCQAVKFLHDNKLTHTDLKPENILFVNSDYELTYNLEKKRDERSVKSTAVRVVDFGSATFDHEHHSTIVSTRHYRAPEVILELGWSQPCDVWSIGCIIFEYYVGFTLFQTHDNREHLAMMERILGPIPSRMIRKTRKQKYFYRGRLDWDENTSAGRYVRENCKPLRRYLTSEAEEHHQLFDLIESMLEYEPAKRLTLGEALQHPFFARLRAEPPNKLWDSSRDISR
Cyclin-dependent kinase 2 homolog (Plasmodium falciparum (isolate 3D7)), sequence (P61075 whole entry): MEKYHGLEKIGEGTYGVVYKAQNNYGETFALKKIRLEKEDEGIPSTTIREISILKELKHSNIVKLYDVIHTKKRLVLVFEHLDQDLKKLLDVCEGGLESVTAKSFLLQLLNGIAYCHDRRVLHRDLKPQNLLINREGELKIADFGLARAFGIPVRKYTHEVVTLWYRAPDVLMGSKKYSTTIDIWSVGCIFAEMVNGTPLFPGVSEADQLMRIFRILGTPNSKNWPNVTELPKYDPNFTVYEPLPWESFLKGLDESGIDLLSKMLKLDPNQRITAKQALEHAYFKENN
Phosphatidylinositol 4,5-bisphosphate 3-kinase catalytic subunit gamma isoform (Homo sapiens), sequence (P48736 whole entry, looked up, canonical isoform): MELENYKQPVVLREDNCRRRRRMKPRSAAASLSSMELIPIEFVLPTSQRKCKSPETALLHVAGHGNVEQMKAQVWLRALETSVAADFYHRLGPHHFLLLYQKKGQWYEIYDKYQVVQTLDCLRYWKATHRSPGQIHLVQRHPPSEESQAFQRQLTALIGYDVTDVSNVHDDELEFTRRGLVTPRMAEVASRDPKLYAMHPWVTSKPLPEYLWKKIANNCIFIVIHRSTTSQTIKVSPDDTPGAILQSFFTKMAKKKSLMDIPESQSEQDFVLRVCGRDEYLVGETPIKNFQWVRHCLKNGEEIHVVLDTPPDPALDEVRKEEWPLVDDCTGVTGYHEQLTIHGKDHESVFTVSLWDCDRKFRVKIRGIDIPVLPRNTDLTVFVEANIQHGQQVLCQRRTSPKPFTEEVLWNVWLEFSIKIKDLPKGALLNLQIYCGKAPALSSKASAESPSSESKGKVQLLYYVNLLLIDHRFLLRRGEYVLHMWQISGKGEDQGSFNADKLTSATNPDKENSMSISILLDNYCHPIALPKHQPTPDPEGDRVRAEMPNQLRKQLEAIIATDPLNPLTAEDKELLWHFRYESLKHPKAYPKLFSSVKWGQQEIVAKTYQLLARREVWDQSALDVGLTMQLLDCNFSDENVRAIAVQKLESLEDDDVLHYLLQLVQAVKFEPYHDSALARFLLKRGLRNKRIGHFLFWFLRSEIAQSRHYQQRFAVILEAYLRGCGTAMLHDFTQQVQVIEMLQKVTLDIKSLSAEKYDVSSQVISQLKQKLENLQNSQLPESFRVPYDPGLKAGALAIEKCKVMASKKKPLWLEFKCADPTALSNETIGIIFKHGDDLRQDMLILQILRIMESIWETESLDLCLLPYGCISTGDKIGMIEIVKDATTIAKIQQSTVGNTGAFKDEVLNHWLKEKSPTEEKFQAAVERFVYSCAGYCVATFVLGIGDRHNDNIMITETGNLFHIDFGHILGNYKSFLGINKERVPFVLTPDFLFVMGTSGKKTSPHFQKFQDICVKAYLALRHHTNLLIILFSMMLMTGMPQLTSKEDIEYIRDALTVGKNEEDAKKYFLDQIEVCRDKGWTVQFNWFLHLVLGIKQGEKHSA
Receptor tyrosine-protein kinase erbB-2 (Homo sapiens), sequence (P04626 whole entry): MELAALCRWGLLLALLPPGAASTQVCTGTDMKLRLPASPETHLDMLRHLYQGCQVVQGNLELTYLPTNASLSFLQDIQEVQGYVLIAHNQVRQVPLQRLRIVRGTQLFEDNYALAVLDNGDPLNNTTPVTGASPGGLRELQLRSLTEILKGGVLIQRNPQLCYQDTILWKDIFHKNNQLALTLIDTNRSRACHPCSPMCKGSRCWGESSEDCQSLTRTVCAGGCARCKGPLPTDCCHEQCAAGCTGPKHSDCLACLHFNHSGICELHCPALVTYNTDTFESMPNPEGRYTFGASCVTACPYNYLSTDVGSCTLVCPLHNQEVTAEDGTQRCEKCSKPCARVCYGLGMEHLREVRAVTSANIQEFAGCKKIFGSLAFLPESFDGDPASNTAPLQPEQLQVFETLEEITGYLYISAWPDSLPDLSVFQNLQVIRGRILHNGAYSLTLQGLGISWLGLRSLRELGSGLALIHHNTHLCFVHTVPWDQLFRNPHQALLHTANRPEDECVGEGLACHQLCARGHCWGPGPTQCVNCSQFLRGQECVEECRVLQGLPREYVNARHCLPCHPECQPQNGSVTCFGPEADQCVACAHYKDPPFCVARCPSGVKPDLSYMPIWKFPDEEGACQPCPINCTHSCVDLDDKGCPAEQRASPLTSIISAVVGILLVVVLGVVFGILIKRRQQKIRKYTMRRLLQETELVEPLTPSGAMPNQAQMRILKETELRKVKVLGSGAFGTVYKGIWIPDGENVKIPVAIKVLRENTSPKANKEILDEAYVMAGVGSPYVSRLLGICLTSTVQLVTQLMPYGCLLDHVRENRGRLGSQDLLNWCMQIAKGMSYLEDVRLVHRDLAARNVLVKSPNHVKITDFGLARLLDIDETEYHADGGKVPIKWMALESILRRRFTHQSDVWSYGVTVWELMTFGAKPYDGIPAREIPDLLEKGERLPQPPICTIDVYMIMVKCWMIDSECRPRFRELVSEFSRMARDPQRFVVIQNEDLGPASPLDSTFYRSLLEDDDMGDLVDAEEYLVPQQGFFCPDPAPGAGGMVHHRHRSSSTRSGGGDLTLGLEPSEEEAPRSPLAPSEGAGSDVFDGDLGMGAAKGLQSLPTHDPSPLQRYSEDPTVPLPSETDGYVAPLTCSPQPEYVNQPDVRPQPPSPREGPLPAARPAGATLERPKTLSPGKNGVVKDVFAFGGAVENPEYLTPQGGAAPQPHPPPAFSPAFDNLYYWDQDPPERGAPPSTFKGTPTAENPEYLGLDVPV
Serine/threonine-protein kinase RIO1 (Homo sapiens), sequence (Q9BRS2 whole entry): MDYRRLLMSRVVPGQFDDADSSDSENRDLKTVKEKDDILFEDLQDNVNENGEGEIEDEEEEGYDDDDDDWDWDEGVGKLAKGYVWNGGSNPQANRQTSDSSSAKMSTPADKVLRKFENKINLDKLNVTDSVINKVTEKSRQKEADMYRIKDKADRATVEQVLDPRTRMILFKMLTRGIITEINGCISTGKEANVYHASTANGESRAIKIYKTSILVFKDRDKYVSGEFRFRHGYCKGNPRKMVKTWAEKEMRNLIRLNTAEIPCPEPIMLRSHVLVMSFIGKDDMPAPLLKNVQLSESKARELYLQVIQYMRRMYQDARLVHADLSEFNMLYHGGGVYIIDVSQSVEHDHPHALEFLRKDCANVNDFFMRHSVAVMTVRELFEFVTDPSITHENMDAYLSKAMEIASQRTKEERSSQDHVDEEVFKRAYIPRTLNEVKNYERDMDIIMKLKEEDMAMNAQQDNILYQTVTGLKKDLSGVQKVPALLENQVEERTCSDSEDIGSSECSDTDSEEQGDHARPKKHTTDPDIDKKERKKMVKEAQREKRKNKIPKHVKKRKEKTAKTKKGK
Mitogen-activated protein kinase kinase kinase 2 (Homo sapiens), sequence (Q9Y2U5 whole entry): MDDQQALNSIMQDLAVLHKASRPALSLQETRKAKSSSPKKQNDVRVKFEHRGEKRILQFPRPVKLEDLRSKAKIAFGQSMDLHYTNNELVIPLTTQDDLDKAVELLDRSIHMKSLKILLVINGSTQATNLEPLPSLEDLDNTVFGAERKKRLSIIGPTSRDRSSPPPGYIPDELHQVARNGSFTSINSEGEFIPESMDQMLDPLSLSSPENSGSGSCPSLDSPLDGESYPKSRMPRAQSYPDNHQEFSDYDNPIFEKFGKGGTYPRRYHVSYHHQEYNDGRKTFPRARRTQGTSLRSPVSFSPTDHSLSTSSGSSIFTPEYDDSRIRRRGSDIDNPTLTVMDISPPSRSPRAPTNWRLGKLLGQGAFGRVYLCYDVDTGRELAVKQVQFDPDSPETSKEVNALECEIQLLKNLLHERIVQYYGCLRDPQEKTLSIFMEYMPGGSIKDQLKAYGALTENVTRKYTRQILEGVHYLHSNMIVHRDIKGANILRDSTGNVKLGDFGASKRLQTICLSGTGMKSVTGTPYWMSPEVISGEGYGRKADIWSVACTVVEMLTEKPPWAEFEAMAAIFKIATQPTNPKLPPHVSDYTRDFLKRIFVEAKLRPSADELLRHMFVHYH

With Cc1c(C(=O)O)cc(-c2ccc(C3CCNCC3)cc2)c2ccc(-c3ccc(C(F)(F)F)cc3)cc12 [PPTN-NC] the residual activity [1] was 86%, the residual activity [2] was 100% and the residual activity [3] was 85%. It also gave a residual activity [4] of 100%, a residual activity [5] of 100% and a residual activity [6] of 100%. For the same molecule, the residual activity [7] was 100%, the residual activity [8] was 100% and the residual activity [9] was 100%. The residual activity [10] was 100%, the residual activity [11] was 100% and the residual activity [12] was 100%. For the same molecule, the residual activity [13] was 100%, the residual activity [14] was 100% and the inhibition [15] was 1.21%. For the same molecule, the residual activity [16] was 93%, the residual activity [17] was 100% and the residual activity [18] was 100%. It also gave a residual activity [19] of 100%, a residual activity [20] of 100% and a residual activity [21] of 100%. For the same molecule, the residual activity [22] was 94%, the residual activity [23] was 100% and the residual activity [24] was 100%. The residual activity [25] was 100%, the residual activity [26] was 85% and the residual activity [27] was 100%. It also gave a residual activity [28] of 100%, a residual activity [29] of 100% and an inhibition [30] of 11.2%. The residual activity [31] was 100%, the residual activity [32] was 100% and the residual activity [33] was 100%. It also gave an inhibition [34] of 57.5%, a residual activity [35] of 100% and a residual activity [36] of 100%. The residual activity [37] was 100%, the residual activity [38] was 100% and the inhibition [39] was 9%. It also gave a residual activity [40] of 92%, a residual activity [41] of 100% and a residual activity [42] of 100%. For the same molecule, the residual activity [43] was 94%.

With O=C(O)c1cc(-c2ccc(C3CCNCC3)cc2)c2ccc(-c3ccc(C(F)(F)F)cc3)cc2c1 [PPTN] the residual activity [1] was 91%, the residual activity [2] was 100% and the residual activity [3] was 72%. It also gave a residual activity [4] of 100%, a residual activity [5] of 100% and a residual activity [6] of 100%. For the same molecule, the residual activity [7] was 100%, the residual activity [8] was 100% and the residual activity [9] was 90%. The residual activity [10] was 100%, the residual activity [11] was 100% and the residual activity [12] was 100%. The residual activity [13] was 100%, the residual activity [14] was 100% and the inhibition [15] was -3.98%. The residual activity [16] was 100%, the residual activity [17] was 100% and the residual activity [18] was 100%. For the same molecule, the residual activity [19] was 100%, the residual activity [20] was 100% and the residual activity [21] was 92%. It also gave a residual activity [22] of 100%, a residual activity [23] of 100% and a residual activity [24] of 100%. It also gave a residual activity [25] of 100%, a residual activity [26] of 100% and a residual activity [27] of 100%. The residual activity [28] was 100%, the residual activity [29] was 100% and the inhibition [30] was 23.6%. For the same molecule, the residual activity [31] was 100%, the residual activity [32] was 100% and the residual activity [33] was 100%. For the same molecule, the inhibition [34] was 65.2%, the residual activity [35] was 100% and the residual activity [36] was 100%. It also gave a residual activity [37] of 100%, a residual activity [38] of 100% and an inhibition [39] of 28%. It also gave a residual activity [40] of 95%, a residual activity [41] of 100% and a residual activity [42] of 100%. The residual activity [43] was 96%.
